In the supplement of paper PMC10627819:

Experiments:
S. aureus Newman [1] = experiment: fitness (endpoint OD595 vs no drug) (fraction); higher = more growth
In short: (§1)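 Fitness expresses the optical density reached at the stationary-phase transition as a fraction of the robust mean of no-drug control wells. It is capped at 1. Measurements were OD595 every 30 min for 14 h at 37 °C after inoculation of 384-well plates at OD595 0.01 (30 µl, or 55 µl for S. pneumoniae), minus the first reading.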

S. pneumoniae D39V [2] = experiment: as above
In short: as §1

B. subtilis 168 = experiment: Bliss interaction score (quartile over a dose matrix) (fitness difference); higher = more antagonism (negative = synergy)
In short: (§2)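 OD595 was read at entry into stationary phase and expressed relative to the robust mean of the no-drug wells on the same plate, capped at 1. The resulting ratio is the fitness value. The Bliss score, observed fitness minus product-based expected fitness with single-drug fitness inferred from combinations, is summarised by quartiles over technical, biological and donor/recipient replicates.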

S. aureus DSM 20231 = experiment: as above
In short: as §2

S. aureus Newman [3] = experiment: as above
In short: as §2

S. pneumoniae D39V [4] = experiment: as above
In short: as §2
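Throughout, for Bliss interaction score (quartile over a dose matrix): first quartile when negative (synergy) and third quartile when positive (antagonism).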

CC1(C)S[C@@H]2[C@H](NC(=O)[C@H](N)c3ccc(O)cc3)C(=O)N2[C@H]1C(=O)O [Amoxicillin] + C/C(=C\C(=O)OCCCCCCCCC(=O)O)C[C@@H]1OC[C@H](C[C@@H]2O[C@H]2[C@@H](C)[C@H](C)O)[C@@H](O)[C@H]1O [Pseudomonic acid]
fitness, one replicate
Conditions	partner 0.03 µg/mL	partner 0.0313 µg/mL	partner 0.06 µg/mL	partner 0.0625 µg/mL	partner 0.12 µg/mL	partner 0.125 µg/mL
S. aureus Newman [1], first compound 0.0625 µg/mL	–	0.0402	–	0.0188	–	0.0414
S. aureus Newman [1], first compound 0.125 µg/mL	–	0.0188	–	0.0167	–	0.0327
S. aureus Newman [1], first compound 0.25 µg/mL	–	0.0112	–	0.0059	–	0.0163
S. pneumoniae D39V [2], first compound 0.006 µg/mL	0.577	–	0.64	–	0.283	–

fitness, S. pneumoniae D39V [2]
Conditions	first compound 0.0008 µg/mL	first compound 0.0015 µg/mL	first compound 0.003 µg/mL
partner 0.03 µg/mL	0.888	0.974	0.932
partner 0.06 µg/mL	0.838	0.822	0.882
partner 0.12 µg/mL	0.586	0.68	–

Conditions	Bliss interaction score
B. subtilis 168	0.0663
S. aureus DSM 20231	0.0169
S. aureus Newman [3]	-0.031
S. pneumoniae D39V [4]	0.121

CC1(C)S[C@@H]2[C@H](NC(=O)[C@H](N)c3ccc(O)cc3)C(=O)N2[C@H]1C(=O)O [Amoxicillin] + CC1=C(C(=O)O)N2C(=O)[C@@H](NC(=O)[C@H](N)c3ccccc3)[C@H]2SC1 [Cephalexin]
fitness
Conditions	partner 0.25 µg/mL	partner 0.5 µg/mL	partner 1 µg/mL	partner 2 µg/mL	partner 4 µg/mL
S. aureus Newman [1], first compound 0.0625 µg/mL	0.877	0.882	0.942	–	–
S. aureus Newman [1], first compound 0.125 µg/mL	0.928	0.921	0.894	–	–
S. aureus Newman [1], first compound 0.25 µg/mL	0.877	0.928	0.888	–	–
S. pneumoniae D39V [2], first compound 0.0015 µg/mL	–	–	0.791	0.337	0.0775
S. pneumoniae D39V [2], first compound 0.003 µg/mL	–	–	0.544	0.125	0.0383

one replicate
Conditions	fitness
S. aureus Newman [1], first compound 0.0625 µg/mL, partner 2 µg/mL	0.864
S. aureus Newman [1], first compound 0.125 µg/mL, partner 2 µg/mL	0.832
S. aureus Newman [1], first compound 0.25 µg/mL, partner 2 µg/mL	0.705
S. pneumoniae D39V [2], first compound 0.0008 µg/mL, partner 0.125 µg/mL	0.978
S. pneumoniae D39V [2], first compound 0.0008 µg/mL, partner 0.25 µg/mL	0.9
S. pneumoniae D39V [2], first compound 0.0008 µg/mL, partner 0.5 µg/mL	0.881
S. pneumoniae D39V [2], first compound 0.0008 µg/mL, partner 1 µg/mL	0.91
S. pneumoniae D39V [2], first compound 0.0008 µg/mL, partner 2 µg/mL	0.494
S. pneumoniae D39V [2], first compound 0.0008 µg/mL, partner 4 µg/mL	0.02
S. pneumoniae D39V [2], first compound 0.0015 µg/mL, partner 0.125 µg/mL	0.922
S. pneumoniae D39V [2], first compound 0.0015 µg/mL, partner 0.25 µg/mL	0.891
S. pneumoniae D39V [2], first compound 0.0015 µg/mL, partner 0.5 µg/mL	0.906
S. pneumoniae D39V [2], first compound 0.003 µg/mL, partner 0.125 µg/mL	0.857
S. pneumoniae D39V [2], first compound 0.003 µg/mL, partner 0.25 µg/mL	0.835
S. pneumoniae D39V [2], first compound 0.003 µg/mL, partner 0.5 µg/mL	0.849
S. pneumoniae D39V [2], first compound 0.006 µg/mL, partner 1 µg/mL	0.0722
S. pneumoniae D39V [2], first compound 0.006 µg/mL, partner 2 µg/mL	0.0153
S. pneumoniae D39V [2], first compound 0.006 µg/mL, partner 4 µg/mL	0.0513

Conditions	Bliss interaction score
B. subtilis 168	0.0616
S. aureus DSM 20231	0.0743
S. aureus Newman [3]	0.0592
S. pneumoniae D39V [4]	-0.0619

CC1(C)S[C@@H]2[C@H](NC(=O)[C@H](N)c3ccc(O)cc3)C(=O)N2[C@H]1C(=O)O [Amoxicillin] + CC(C1CCC(C(O1)OC2C(CC(C(C2O)OC3C(C(C(CO3)(C)O)NC)O)N)N)N)NC [Gentamicin]
fitness, main component drawn
Conditions	partner 0.375 µg/mL	partner 0.5 µg/mL	partner 0.75 µg/mL	partner 1 µg/mL	partner 1.5 µg/mL	partner 2 µg/mL	partner 4 µg/mL	partner 8 µg/mL
S. aureus Newman [1], first compound 0.0625 µg/mL	0.91	0.878	0.896	0.911	0.892	0.972	–	–
S. aureus Newman [1], first compound 0.125 µg/mL	0.984	0.851	≥ 1	0.899	0.974	0.968	–	–
S. aureus Newman [1], first compound 0.25 µg/mL	0.983	0.858	0.944	0.847	0.961	–	–	–
S. pneumoniae D39V [2], first compound 0.0008 µg/mL	–	–	–	–	–	0.977	0.935	0.942
S. pneumoniae D39V [2], first compound 0.0015 µg/mL	–	–	–	–	–	0.988	0.94	0.946
S. pneumoniae D39V [2], first compound 0.003 µg/mL	–	–	–	–	–	0.926	0.9	0.851

fitness, one replicate, main component drawn
Conditions	partner 2 µg/mL	partner 4 µg/mL	partner 8 µg/mL
S. aureus Newman [1], first compound 0.0625 µg/mL	–	0.0669	–
S. aureus Newman [1], first compound 0.125 µg/mL	–	0.0478	–
S. aureus Newman [1], first compound 0.25 µg/mL	–	0.0624	–
S. pneumoniae D39V [2], first compound 0.006 µg/mL	0.587	0.634	0.508

main component drawn
Conditions	Bliss interaction score
B. subtilis 168	-0.0767
S. aureus DSM 20231	0.0684
S. aureus Newman [3]	0.0602
S. pneumoniae D39V [4]	0.055

CC1(C)S[C@@H]2[C@H](NC(=O)[C@H](N)c3ccc(O)cc3)C(=O)N2[C@H]1C(=O)O [Amoxicillin] + CN(C)c1cc(NC(=O)CNC(C)(C)C)c(O)c2c1C[C@H]1C[C@H]3[C@H](N(C)C)C(O)=C(C(N)=O)C(=O)[C@@]3(O)C(O)=C1C2=O [Tigecycline]
Conditions	fitness
S. aureus Newman [1], first compound 0.0625 µg/mL, partner 0.039 µg/mL	0.892
S. aureus Newman [1], first compound 0.0625 µg/mL, partner 0.078 µg/mL	0.903
S. aureus Newman [1], first compound 0.0625 µg/mL, partner 0.156 µg/mL	0.884
S. aureus Newman [1], first compound 0.125 µg/mL, partner 0.039 µg/mL	0.875
S. aureus Newman [1], first compound 0.125 µg/mL, partner 0.078 µg/mL	0.922
S. aureus Newman [1], first compound 0.125 µg/mL, partner 0.156 µg/mL	0.862
S. aureus Newman [1], first compound 0.25 µg/mL, partner 0.039 µg/mL	0.799
S. aureus Newman [1], first compound 0.25 µg/mL, partner 0.078 µg/mL	0.867
S. aureus Newman [1], first compound 0.25 µg/mL, partner 0.156 µg/mL	0.817
S. pneumoniae D39V [2], first compound 0.0008 µg/mL, partner 0.65 µg/mL	0.928
S. pneumoniae D39V [2], first compound 0.0008 µg/mL, partner 1.3 µg/mL	≥ 1
S. pneumoniae D39V [2], first compound 0.0008 µg/mL, partner 2.6 µg/mL	0.968
S. pneumoniae D39V [2], first compound 0.0015 µg/mL, partner 0.325 µg/mL	0.941
S. pneumoniae D39V [2], first compound 0.0015 µg/mL, partner 0.65 µg/mL	0.942
S. pneumoniae D39V [2], first compound 0.0015 µg/mL, partner 1.3 µg/mL	0.994
S. pneumoniae D39V [2], first compound 0.0015 µg/mL, partner 2.6 µg/mL	0.956
S. pneumoniae D39V [2], first compound 0.003 µg/mL, partner 0.325 µg/mL	0.904
S. pneumoniae D39V [2], first compound 0.003 µg/mL, partner 0.65 µg/mL	0.921
S. pneumoniae D39V [2], first compound 0.003 µg/mL, partner 1.3 µg/mL	0.944
S. pneumoniae D39V [2], first compound 0.003 µg/mL, partner 2.6 µg/mL	0.877

fitness, S. pneumoniae D39V [2], one replicate
Conditions	partner 0.325 µg/mL	partner 0.65 µg/mL	partner 1.3 µg/mL
first compound 0.0008 µg/mL	0.969	–	–
first compound 0.006 µg/mL	0.386	0.449	0.458

Conditions	Bliss interaction score
B. subtilis 168	-0.0604
S. aureus DSM 20231	-0.0322
S. aureus Newman [3]	0.0642
S. pneumoniae D39V [4]	0.0424
